Results on 79 molecules are retold here after publication PMC12040169 (PLOS Biology, 2025).

One may read the viability as a read-out of living cells in per cent, often relative to untreated cells.

The series in a line: in vitro. Conditions: human, hela cells, % viability.

Turning to `COc1ccc(S(=O)(=O)N(CC(=O)Nc2ccc(F)cc2)c2ccccc2)cc1` [CBK264141], the viability at 28.5 h, 10 µM is 96.5%.

On to `COc1ccc2c3c(cc(Cl)cc13)CC(N)C2` (stereo not shown) [CBK016450C], for which the viability at 28.5 h, 10 µM turned out to be 84.2%.

In the case of `CCc1ccc(-n2cc(-c3ccccn3)nn2)cc1` [CBK113137], the viability at 28.5 h, 10 µM came out at 106%.

As for `CC(CC(=O)NC(c1ccc(F)cc1)c1nccn1C)n1cccn1` (stereo not shown) [CBK281454], the viability at 28.5 h, 10 µM is 93.7%.

`Cc1ccc(OC(=O)c2ccc(S(=O)(=O)N(C)C)cc2)c(-n2nc3ccccc3n2)c1` [CBK267805]: the viability at 28.5 h, 10 µM was determined as 81.2%.

Turning to `CC(C)(C)c1cc(CCC(=O)N/N=C/c2ccco2)cc(C(C)(C)C)c1O` [CBK261960], the viability at 28.5 h, 10 µM stood at 110%.

Regarding `COc1ccc(OC(C)C(=O)Nc2cc(OC)c(Cl)cc2OC)cc1` (stereo not shown) [CBK263627], the viability at 28.5 h, 10 µM is 96%.

In the case of `C[C@H](Nc1nc(-c2cccc(C(N)=O)c2)cnc1N)c1ccccc1` [CBK063715], the viability at 28.5 h, 10 µM turned out to be 97.1%.

In the case of `CCn1nc(C)c(-c2cncn2Cc2ccccc2CN(C)C)c1C` [CBK281998], the viability at 28.5 h, 10 µM came out at 88.1%.

`CN1[C@@H](CCC(=O)Nc2ccccc2)CNC(=O)[C@@H]2[C@H]1CCN2C1CCOCC1` [CBK289029]: the viability at 28.5 h, 10 µM was 108%.

Turning to `Cc1cc(C)nc(SCCN2CCOCC2)n1` [CBK261769C], the viability at 28.5 h, 10 µM worked out at 93.8%.

As for `COc1ccc(-c2cc3ncnc(Sc4nnnn4CC4CCCO4)c3s2)cc1` (stereo not shown) [CBK297157], the viability at 28.5 h, 10 µM turned out to be 95.9%.

`Cc1nc(C2CN(c3ccnc4c(F)cccc34)CCO2)no1` (stereo not shown) [CBK304464]: the viability at 28.5 h, 10 µM is 80.7%.

For `COc1cc(CNc2ccc(N3CCCCC3)cc2)cc(Cl)c1OCc1cccs1` [CBK074586], the viability at 28.5 h, 10 µM is 101%.

For `O=C(O)CSc1nnc(-c2ccc3c(c2)OCO3)n1-c1ccccc1` [CBK131690], the viability at 28.5 h, 10 µM came out at 105%.

`CC(C)C1c2cccn2CCN1C(=O)c1cc(-c2ccccn2)n[nH]1` (stereo not shown) [CBK283223]: the viability at 28.5 h, 10 µM stood at 81.9%.

Regarding `O=C(/C=C/c1ccc([N+](=O)[O-])cc1)c1ccc(O)c(O)c1` [CBK265028], the viability at 28.5 h, 10 µM was determined as 105%.

Turning to `CNC(=S)NNC(=O)CN1CCSCC1` [CBK262444], the viability at 28.5 h, 10 µM was 88.3%.

Turning to `Cc1ccc(C(=O)N2CCC(c3n[nH]c4ncccc34)CC2)s1` [CBK284911], the viability at 28.5 h, 10 µM is 90.8%.

For the molecule `O=C(CSCc1ccc([N+](=O)[O-])cc1)Nc1c[nH]c(=O)[nH]c1=O` [CBK268549], the viability at 28.5 h, 10 µM worked out at 98.5%.

For the molecule `O=C(CN1C(=O)c2ccccc2C1=O)Nc1cccc2ncccc12` [CBK262761], the viability at 28.5 h, 10 µM stood at 84%.

On to `CN(CCCc1cc(-c2cccc(F)c2)n[nH]1)C(=O)c1cnn(C)c1` [CBK305745], for which the viability at 28.5 h, 10 µM was found to be 86.6%.

As to `O=C(O)COc1ccc(S(=O)(=O)N2CCCCC2)cc1Cl` [CBK268419], the viability at 28.5 h, 10 µM worked out at 105%.

On to `O=C(N/N=C/c1cc([N+](=O)[O-])ccc1Cl)c1ccc(O)c(O)c1` [CBK261599], for which the viability at 28.5 h, 10 µM worked out at 112%.

As to `Cc1nc(COc2ccc(C(=O)N3CCCC(C(N)=O)C3)cc2)no1` (stereo not shown) [CBK305660], the viability at 28.5 h, 10 µM is 84.2%.

Turning to `OCCN1CCN(c2nccnc2-c2ccncc2)CC1` [CBK038084], the viability at 28.5 h, 10 µM turned out to be 89.2%.

With `O=C1N=C(NCC2CCCCC2)SC1CC(=O)N1CCCC(O)C1` (stereo not shown) [CBK067919], the viability at 28.5 h, 10 µM is 109%.

Turning to `Cc1noc(C)c1CCC(=O)NC(Cc1ccncc1)C1CC(O)C1` (stereo not shown) [CBK306790], the viability at 28.5 h, 10 µM came to 91%.

For `OCc1nc2ccccc2n1CCCCOc1ccccc1Cl` [CBK270117], the viability at 28.5 h, 10 µM was found to be 106%.

For the molecule `O=C(c1ccoc1)N1CCC2(CCCN(Cc3c(F)cccc3F)C2)C1` (stereo not shown) [CBK132806], the viability at 28.5 h, 10 µM came to 95.1%.

Turning to `O=C(CCc1ccccc1)NC(=S)Nc1ccc(-c2nc3ccccc3[nH]2)cc1` [CBK267472], the viability at 28.5 h, 10 µM worked out at 77.1%.

Regarding `COc1ccc(CNC(=O)c2cc(S(=O)(=O)N3CCOCC3)cs2)cc1` [CBK307577], the viability at 28.5 h, 10 µM came to 95.7%.

Turning to `Cc1ccc(C(CC(=O)N2CCN(Cc3ccccc3)CC2)c2ccccc2)c(O)c1C` (stereo not shown) [CBK262214], the viability at 28.5 h, 10 µM stood at 100%.

In the case of `O=C(NCc1ccccc1OC1CCNC1)c1ccccn1` (stereo not shown) [CBK029464T], the viability at 28.5 h, 10 µM came to 91.6%.

In the case of `c1ccc(N2CCN(c3cccc(-c4ccc5c(c4)OCO5)n3)CC2)nc1` [CBK036851], the viability at 28.5 h, 10 µM came out at 104%.

Regarding `CC(C)(C)NC(=O)C[C@@H]1CCNC[C@@H]1Cc1cc(-c2ccc(F)cc2)on1` [CBK288802], the viability at 28.5 h, 10 µM came to 99.2%.

For the molecule `Cn1c(SCC(=O)c2ccccc2)nnc1-c1ccc(NC(=O)c2ccccc2Cl)cc1` [CBK264357], the viability at 28.5 h, 10 µM turned out to be 95%.

As for `Cc1nc2cc(C(=O)N3CCc4[nH]c5ccccc5c4C3)ccc2n1C` [CBK281842], the viability at 28.5 h, 10 µM was 60.6%.

With `Cc1cc(S(=O)(=O)Nc2ccnn2C(C)C)ccc1F` [CBK283069], the viability at 28.5 h, 10 µM turned out to be 96.9%.

With `O=C1C=C(N2CCC(CCC3CCN(C4=CC(=O)CCC4)CC3)CC2)CCC1` [CBK007126], the viability at 28.5 h, 10 µM was 105%.

For the molecule `C=CCNC(=O)N[C@H]1[C@H](O)[C@@H](N2CCCC2)[C@@H]2OC[C@H]1O2` [CBK288829], the viability at 28.5 h, 10 µM is 92.6%.

Turning to `Cc1nc(-c2ccccc2)sc1C(=O)C1=C(O)C(=O)N(CCN2CCOCC2)C1c1ccccc1F` (stereo not shown) [CBK266511], the viability at 28.5 h, 10 µM is 103%.

Consider `Fc1cc(Br)c(CNCc2cocn2)c(N2CCCCC2)c1F` [CBK304792], for which the viability at 28.5 h, 10 µM worked out at 86.8%.

Take `COc1ccc(C2=NN(c3ccc([N+](=O)[O-])cc3)C(=O)/C2=C/NCc2ccccn2)cc1` [CBK265276]: the viability at 28.5 h, 10 µM is 107%.

As for `Nc1nonc1-n1nnc(C(=O)N/N=C2\CCc3ccccc32)c1-c1ccccc1` [CBK261988], the viability at 28.5 h, 10 µM was 95.1%.

With `O=C(O)c1[nH]c2ccccc2c1/C=N/Cc1ccccc1Cl` [CBK294456], the viability at 28.5 h, 10 µM came out at 98.7%.

Turning to `Cc1ccc(NC(=O)N2CCc3ccccc3C2)cc1` [CBK155309], the viability at 28.5 h, 10 µM was 93.6%.

`Cc1cc(NC(=O)C2CCCCC2)nc2c1c(=O)oc1ccccc12` [CBK291247]: the viability at 28.5 h, 10 µM worked out at 83.1%.

With `CCNc1nccnc1-c1cccc(O)c1` [CBK088593], the viability at 28.5 h, 10 µM was 103%.

As to `Cc1ccc2oc(CN3CCn4cnnc4C3)c(C)c2c1` [CBK283075], the viability at 28.5 h, 10 µM was 109%.

As for `COc1cc(/C=C/c2nc(O)c([N+](=O)[O-])c(=O)[nH]2)ccc1OCC(=O)N1CCOCC1` [CBK267168], the viability at 28.5 h, 10 µM worked out at 96.8%.

Consider `CCCCCc1nc(N)c(-c2cccc(Br)c2)c(C#N)c1CCCC` [CBK026574], for which the viability at 28.5 h, 10 µM was found to be 118%.

As for `CN(Cc1ccccc1)CC(O)c1ccc2c(c1)CCCN2C(=O)c1ccccc1F` (stereo not shown) [CBK286278], the viability at 28.5 h, 10 µM is 88.2%.

Regarding `O=C(O)c1ccccc1NC1CC(=O)N(C2CCCCC2)C1` (stereo not shown) [CBK286556], the viability at 28.5 h, 10 µM came to 91.3%.

For `Nc1cccc(-c2nc(NC(=O)Cc3ccccc3)cnc2-c2ccc(F)cc2)c1` [CBK037550], the viability at 28.5 h, 10 µM was determined as 91.3%.

As for `CCC(CN1CCOCC1)NC(=O)Cc1coc2cc(C)c(C)cc12` (stereo not shown) [CBK282811], the viability at 28.5 h, 10 µM is 91%.

For the molecule `Cc1cc(NCc2ccc(C(C)C)cc2)c2ccccc2n1` [CBK122786], the viability at 28.5 h, 10 µM amounted to 91.7%.

Take `O=C1COc2ccccc2C/C=C/CC2(CCNCC2)C(=O)NCCN1` [CBK291996]: the viability at 28.5 h, 10 µM stood at 105%.

On to `CCc1ccc(-c2cc3c(=O)[nH]nc(S)n3n2)cc1` [CBK288485], for which the viability at 28.5 h, 10 µM is 124%.

For the molecule `COCCn1c(SCc2ccc([N+](=O)[O-])cc2)nc2c([nH]c3ccccc32)c1=O` [CBK294415], the viability at 28.5 h, 10 µM was found to be 90%.

Regarding `O=C(NC(c1ccccc1)c1ccsc1)C1CCN(C2Cc3ccccc3C2)CC1` (stereo not shown) [CBK148541], the viability at 28.5 h, 10 µM was found to be 80%.

With `Cc1cc(NC(=O)CN2CCOC(CNc3cccnn3)C2)on1` (stereo not shown) [CBK305231], the viability at 28.5 h, 10 µM was found to be 109%.

Consider `CC(=O)Nc1ccc(-c2nc3ccc(-c4ccc5nc(-c6ccc(NC(C)=O)cc6)oc(=O)c5c4)cc3c(=O)o2)cc1` [CBK261391], for which the viability at 28.5 h, 10 µM is 107%.

For the molecule `Cc1ccc2oc(-c3cccc(NC(=O)c4ccc(-c5ccc([N+](=O)[O-])cc5)o4)c3C)nc2c1` [CBK263437], the viability at 28.5 h, 10 µM stood at 103%.

`Cc1nc(OCC(=O)O)c(C#N)c2c1COC(C)(C)C2` [CBK286810]: the viability at 28.5 h, 10 µM is 89.4%.

Turning to `COc1ccc2c(c1)/C(=C/c1cnc[nH]1)C(=O)N2` [CBK115354], the viability at 28.5 h, 10 µM is 72.5%.

Regarding `Clc1ccc(C2NCCS2)c(Cl)c1` (stereo not shown) [CBK027425], the viability at 28.5 h, 10 µM is 102%.

For `COc1cccc(OCC(O)CN(C)S(=O)(=O)O)c1` (stereo not shown) [CBK027121N], the viability at 28.5 h, 10 µM was 89.9%.

For `Cc1ncsc1CCOC(=O)N1C[C@@H](C)O[C@@H](C)C1` [CBK200418], the viability at 28.5 h, 10 µM came out at 96.3%.

With `O=C(NC1CC1)c1ccc(-c2cnc3[nH]c(=O)n(-c4ccc5[nH]ccc5c4)c3n2)cc1` [CBK064916], the viability at 28.5 h, 10 µM stood at 103%.

Consider `Cc1cc(=O)n2c3c(cc(S(=O)(=O)NC4CC4)cc13)CCC2` [CBK307572], for which the viability at 28.5 h, 10 µM turned out to be 87%.

For the molecule `COCc1ccsc1C(=O)Nc1ncn(CC(=O)N2CCCCCC2)n1` [CBK304160], the viability at 28.5 h, 10 µM stood at 94.9%.

Turning to `Cc1nn(Cc2ccc(Cl)cc2)c(C)c1NC(=O)CSc1nc(-c2ccc(F)cc2)cc(C(F)(F)F)n1` [CBK266160], the viability at 28.5 h, 10 µM was determined as 89.7%.

Consider `CCOC(=O)c1[nH]c2ccccc2c1NS(=O)(=O)Cc1ccccc1[N+](=O)[O-]` [CBK047426], for which the viability at 28.5 h, 10 µM is 94.7%.

On to `c1cncc(CCOc2nccnc2N2CCNCC2)c1` [CBK014992], for which the viability at 28.5 h, 10 µM is 101%.

For the molecule `CC(C)(C)C(=O)NCCn1c(=O)oc2ccccc21` [CBK282885], the viability at 28.5 h, 10 µM turned out to be 96.4%.

As to `Nc1nc(CCN2CCOCC2=O)cs1` [CBK003792], the viability at 28.5 h, 10 µM came out at 85.8%.

As for `CC(NC(=O)c1ncoc1-c1ccc(F)cc1)c1cccnc1` (stereo not shown) [CBK282358], the viability at 28.5 h, 10 µM came to 103%.

For `Cc1ccc(-c2cc(C(=O)NCc3ccc(F)cc3Cl)n[nH]2)cc1` [CBK288102], the viability at 28.5 h, 10 µM came to 85.6%.
